The results in this text go back to paper PMC12447631 (Environmental science & technology, 2018).

This assay has as its target T1, MGS0156 (uncultured organism, UniProt A0A0G3FEJ8).
T1 sequence (A0A0G3FEJ8 75-421): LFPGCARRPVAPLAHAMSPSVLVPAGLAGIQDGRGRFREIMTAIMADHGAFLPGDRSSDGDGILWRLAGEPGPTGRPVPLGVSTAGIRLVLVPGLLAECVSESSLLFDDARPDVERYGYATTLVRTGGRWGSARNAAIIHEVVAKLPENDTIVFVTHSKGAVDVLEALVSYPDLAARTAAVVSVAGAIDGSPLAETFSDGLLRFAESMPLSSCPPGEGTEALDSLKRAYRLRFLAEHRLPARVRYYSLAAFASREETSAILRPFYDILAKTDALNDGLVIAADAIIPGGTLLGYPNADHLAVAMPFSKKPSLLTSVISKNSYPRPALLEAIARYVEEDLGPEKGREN
The assay is described as follows: spectrophotometric pNP ester hydrolysis. Type of assay: biochemical. As to conditions: 0.5 mM substrate, 50 mM HEPES-K pH 8.0, 30 °C.

`CCCCCCCC(=O)Oc1ccc([N+](=O)[O-])cc1` [pNP-octanoate]: the specific activity result is “MGS0156 was most active against pNP -octanoate and pNP -decanoate (C8–C10 substrates)”.
